Experimental data published in ChEMBL document CHEMBL4229541, “Vinca alkaloids and analogues as anti-cancer agents: Looking back, peering ahead” (Bioorg Med Chem Lett, 2018).

Columns and labels:
Type in all cases: functional, cell-based
[1] = system: L1210; test: Growth inhibition of mouse L1210 cells
[2] = system: HCT-116; test: Growth inhibition of human HCT116 cells
[3] = system: HCT-116/VM46; test: Growth inhibition of human HCT116/VM46 cells

Structure (SMILES) | IC50 [1] | IC50 [2] | IC50 [3]
CC[C@]1(O)C[C@@H]2CN(CCc3c([nH]c4ccccc34)[C@@](C(=O)OC)(c3cc4c(cc3OC)N(C)[C@H]3[C@]5(O)C(=O)N(C)CCC5[C@@H]5CCCN6CC[C@]43C56)C2)C1 (some centres undefined) | 0.57 µM | 0.52 µM | 6.6 µM
CC[C@]1(O)C[C@@H]2CN(CCc3c([nH]c4ccccc34)[C@@](C(=O)OC)(c3cc4c(cc3OC)N(C)[C@@H]3[C@]45CCN4CC=C[C@@](C)(C[C@]3(O)C(=O)OC)[C@H]45)C2)C1 | 0.55 µM | 0.56 µM | 5.3 µM
CC[C@]1(N=[N+]=[N-])C[C@@H]2CN(CCc3c([nH]c4ccccc34)[C@@](C(=O)OC)(c3cc4c(cc3OC)N(C)[C@H]3[C@@](O)(C(=O)OC)[C@H](OC(C)=O)[C@]5(CC)C=CCN6CC[C@]43[C@@H]65)C2)C1 | 0.67 µM | 0.69 µM | 5.5 µM
CC[C@]1(O)C[C@@H]2CN(CCc3c([nH]c4ccccc34)[C@@](C(=O)OC)(c3cc4c(cc3OC)N(C)[C@H]3[C@@](O)(C(=O)OC)[C@H](C(=O)OC)[C@]5(CC)C=CCN6CC[C@]43[C@@H]65)C2)C1 | 0.0081 µM | 0.0061 µM | 
CC[C@]1(O)C[C@@H]2CN(CCc3c([nH]c4ccccc34)[C@@](C(=O)OC)(c3cc4c(cc3OC)N(C)[C@H]3[C@]5(O)C(=O)N(C)CCC5[C@]5(CC)CCCN6CC[C@]43C65)C2)C1 (some centres undefined) | 8.4 µM | 7.9 µM | > 10 µM
CC[C@]1(O)C[C@@H]2CN(CCc3c([nH]c4ccccc34)[C@@](C(=O)OC)(c3cc4c(cc3OC)N(C)[C@@H]3[C@]45CCN4CC=C[C@@H](C[C@]3(O)C(=O)OC)[C@H]45)C2)C1 | 0.61 µM | 0.4 µM | 3.5 µM
CC[C@]1(O)C[C@@H]2CN(CCc3c([nH]c4ccccc34)[C@@](C(=O)OC)(c3cc4c(cc3OC)N(C)[C@H]3[C@@](O)(C(=O)OC)[C@H](OC(C)=O)[C@]5(CC)C[C@@H](O)CN6CC[C@]43[C@@H]65)C2)C1 | 7.6 µM | 7.7 µM | > 10 µM
CC[C@]1(O)C[C@@H]2CN(CCc3c([nH]c4ccccc34)[C@@](C(=O)OC)(c3cc4c(cc3OC)N(C)[C@H]3[C@@](O)(C(=O)OC)[C@H](OC(C)=O)[C@]5(CC)C[C@H](O)CN6CC[C@]43[C@@H]65)C2)C1 | 0.61 µM | 0.63 µM | > 10 µM
CC[C@]1(N)C[C@@H]2CN(CCc3c([nH]c4ccccc34)[C@@](C(=O)OC)(c3cc4c(cc3OC)N(C)[C@H]3[C@@](O)(C(=O)OC)[C@H](OC(C)=O)[C@]5(CC)C=CCN6CC[C@]43[C@@H]65)C2)C1 | 0.64 µM | 0.6 µM | > 10 µM
CC[C@]1(SC#N)C[C@@H]2CN(CCc3c([nH]c4ccccc34)[C@@](C(=O)OC)(c3cc4c(cc3OC)N(C)[C@H]3[C@@](O)(C(=O)OC)[C@H](OC(C)=O)[C@]5(CC)C=CCN6CC[C@]43[C@@H]65)C2)C1 | 0.56 µM | 0.55 µM | 2.9 µM
CC[C@]1(O)C[C@@H]2CN(CCc3c([nH]c4ccccc34)[C@@](C(=O)OC)(c3cc4c(cc3OC)N(C)[C@@H]3[C@]45CCN4CC=C[C@@](CC)(C[C@]3(O)C(=O)OC)[C@H]45)C2)C1 | 58 µM | 60 µM | 660 µM
CC[C@]1(O)C[C@@H]2CN(CCc3c([nH]c4ccccc34)[C@@](C(=O)OC)(c3cc4c(cc3OC)N(C)[C@H]3[C@@](O)(C(=O)OC)[C@H](OC(C)=O)[C@]5(CC)C[C@@H](Cl)CN6CC[C@]43[C@@H]65)C2)C1 | 0.84 µM | 0.71 µM | 8.6 µM
CC[C@]1(N=C=S)C[C@@H]2CN(CCc3c([nH]c4ccccc34)[C@@](C(=O)OC)(c3cc4c(cc3OC)N(C)[C@H]3[C@@](O)(C(=O)OC)[C@H](OC(C)=O)[C@]5(CC)C=CCN6CC[C@]43[C@@H]65)C2)C1 | 0.59 µM | 0.53 µM | 7 µM
CC[C@]1(O)C[C@@H]2CN(CCc3c([nH]c4ccccc34)[C@@](C(=O)OC)(c3cc4c(cc3OC)N(C)[C@H]3[C@@](O)(C(=O)OC)[C@H](OC(C)=O)[C@]5(CC)C=CCN6CC[C@]43[C@@H]65)C2)C1 [VINBLASTINE] |  |  | 0.6 µM
